Results as given in patent US7541368B2, “Pyrazoles as inhibitors of tumor necrosis factor” (Aventis Pharmaceuticals Inc., priority 2003, dated 2009).

Tested on: TNF-alpha release in THP-1 cells
Test: LPS-induced TNF-alpha release in THP-1 cells
Format: cell-based
Conditions: Homo sapiens, THP-1, LPS-stimulated THP-1 cells; read-out: 50% inhibition in the LPS-induced TNF-alpha release in THP-1 cells assay at concentrations within the range
Description: The effects of compounds on TNF-alpha production by lipopolysaccharide (LPS)-stimulated […] monocytes were examined as follows.
Undifferentiated THP-1 cells were maintained in RPMI 1640 with Glutamax I containing β-mercaptoethananol (50 μM) and foetal calf serum (FCS-10%) at densities of about 1×10^6 cells per ml. For incubations without and with test reagents, cells were seeded at the indicated densities under serum-deprived (1% FCS) conditions. Compounds were dissolved in dimethylsulfoxide (DMSO-100%) and incubated with the cells to give a fmal DMSO concentration of 0.3%. Control and untreated cell samples were incubated with DMSO (0.3%).
THP-1 cells (1×10 ^6 cells/ml, total volume 150 μl) in culture medium were incubated for 1 hour (5% CO2, 37° C.) with fresh medium containing compounds or vehicle (0.1-0.3% dimethylsulfoxide). LPS (20 μg/ml) was then added to the cells and the incubation continued for a fuirther 18 hours. Cell supernatants were removed into 96 well plates for storage at −20° C.
TNF-alpha concentrations in cell supernatants were quantified by sandwich ELISA. Briefly, ELISA plates were coated overnight with 2 μg/ml of mouse anti-human TNF-alpha antibody in bicarbonate buffer (pH 9.9). After washing the wells with wash buffer (0.05% (v/v) Tween in PBS)and blocking unoccupied sites (1% BSA in wash buffer), monocyte supernatant samples or human recombinant TNF-alpha standards were added into the corresponding wells of the ELISA plate at 1:10 dilution. Biotinylated rabbit polyclonal anti-human TNF-alpha antibody (3 μg/ml) was used as the second antibody and streptavidin-horseradish peroxidase was used as the detection antibody. The peroxidase substrate is 3,3′,5,5′-tetramethylbenzidine (TMB) in the presence of hydrogen peroxide.
TNFα concentrations in supernatants from control and LPS-stimulated monocyte incubations were calculated by interpolation from a standard (log/log) curve (0.125-16 ng/ml) fitted by Excel Fit using the Activity Base software. Compounds were tested within the concentration range of 1×10^−9M to 1×10^−6M.

| IC50 | SMILES |
| --- | --- |
| 10 to 500 nM | COc1ccc(C(=O)N2CCC(Cc3ccc(NC(=O)Nc4cc(C(C)(C)C)nn4-c4ccc(C)cc4)cc3)CC2)cc1OC [Compound A261, 1-(5-tert-Butyl-2-p-tolyl-2H-pyrazol-3-yl)-3-{4-[1-(3,4-dimethoxy-benzoyl)-piperidin-4-ylmethyl]-phenyl}-urea] |
| 10 to 500 nM | CCS(=O)(=O)N1CCC(Cc2ccc(NC(=O)Nc3cc(C(C)(C)C)nn3-c3ccc(C)cc3)cc2)CC1 [Compound A606, 1-(5-tert-Butyl-2-p-tolyl-2H-pyrazol-3-yl)-3-[4-(1-ethanesulfonyl-piperidin-4-ylmethyl)-phenyl]-urea] |
| 10 to 500 nM | Cc1ccc(-n2nc(C(C)(C)C)cc2NC(=O)Nc2ccc(CC3CCN(C(=O)c4cccnc4Cl)CC3)cc2)cc1 [Compound A235, 1-(5-tert-Butyl-2-p-tolyl-2H-pyrazol-3-yl)-3-{4-[1-(2-chloro-pyridine-3-carbonyl)-piperidin-4-ylmethyl]-phenyl}-urea] |
| 10 to 500 nM | Cc1ccc(-n2nc(C(C)(C)C)cc2NC(=O)Nc2cccc(CC3CCN(C(=O)c4ccc(S(C)(=O)=O)cc4Cl)CC3)c2)cc1 [Compound A40, 1-(5-tert-Butyl-2-p-tolyl-2H-pyrazol-3-yl)-3-{3-[1-(2-chloro-4-methanesulfonyl-benzoyl)-piperidin-4-ylmethyl]-phenyl}-urea] |
| 10 to 500 nM | Cc1ccc(-n2nc(C(C)(C)C)cc2NC(=O)Nc2cccc(CC3CCN(C(=O)c4ccc5cccnc5n4)CC3)c2)cc1 [Compound A8, 1-(5-tert-Butyl-2-p-tolyl-2H-pyrazol-3-yl)-3-{3-[1-([1,8]naphthyridine-2-carbonyl)-piperidin-4-ylmethyl]-phenyl}-urea] |
| 10 to 500 nM | COc1cc(OC)c(C(=O)N2CCC(Cc3ccc(NC(=O)Nc4cc(C(C)(C)C)nn4-c4ccc(C)cc4)cc3)CC2)c(OC)c1 [Compound A215, 1-(5-tert-Butyl-2-p-tolyl-2H-pyrazol-3-yl)-3-{4-[1-(2,4,6-trimethoxy-benzoyl)-piperidin-4-ylmethyl]-phenyl}-urea] |
| 10 to 500 nM | Cc1ccc(-n2nc(C(C)(C)C)cc2NC(=O)Nc2ccc(CC3CCN(C(=O)c4ccc(CO)cc4)CC3)cc2)cc1 [Compound A315, 1-(5-tert-Butyl-2-p-tolyl-2H-pyrazol-3-yl)-3-{4-[1-(4-hydroxymethyl-benzoyl)-piperidin-4-ylmethyl]-phenyl}-urea] |
| 10 to 500 nM | Cc1ccc(-n2nc(C(C)(C)C)cc2NC(=O)Nc2cccc(CC3CCN(C(=O)c4ccsc4)CC3)c2)cc1 [Compound A99, 1-(5-tert-Butyl-2-p-tolyl-2H-pyrazol-3-yl)-3-{3-[1-(thiophene-3-carbonyl)-piperidin-4-ylmethyl]-phenyl}-urea] |
| 10 to 500 nM | CCCC(=O)N1CCC(Cc2ccc(NC(=O)Nc3cc(C(C)(C)C)nn3-c3ccc(C)cc3)cc2)CC1 [Compound A343, 1-(5-tert-Butyl-2-p-tolyl-2H-pyrazol-3-yl)-3-[4-(1-butyryl-piperidin-4-ylmethyl)-phenyl]-urea] |
| 10 to 500 nM | Cc1ccc(-n2nc(C(C)(C)C)cc2NC(=O)Nc2cccc(CC3CCN(C(=O)c4ccc(Cl)s4)CC3)c2)cc1 [Compound A131, 1-(5-tert-Butyl-2-p-tolyl-2H-pyrazol-3-yl)-3-{3-[1-(5-chloro-thiophene-2-carbonyl)-piperidin-4-ylmethyl]-phenyl}-urea] |
| 10 to 500 nM | COc1ccccc1CC(=O)N1CCC(Cc2cccc(NC(=O)Nc3cc(C(C)(C)C)nn3-c3ccc(C)cc3)c2)CC1 [Compound A50, 1-(5-tert-Butyl-2-p-tolyl-2H-pyrazol-3-yl)-3-(3-{1-[2-(2-methoxy-phenyl)-acetyl]-piperidin-4-ylmethyl}-phenyl)-urea] |
| 10 to 500 nM | COc1ccc(C(=O)N2CCC(Cc3ccc(NC(=O)Nc4cc(C(C)(C)C)nn4-c4ccc(C)cc4)cc3)CC2)c(OC)n1 [Compound A224, 1-(5-tert-Butyl-2-p-tolyl-2H-pyrazol-3-yl)-3-{4-[1-(2,6-dimethoxy-pyridine-3-carbonyl)-piperidin-4-ylmethyl]-phenyl}-urea] |
| 10 to 500 nM | Cc1ccc(-n2nc(C(C)(C)C)cc2NC(=O)Nc2ccc(CC3CCN(C(=O)c4cccnc4C)CC3)cc2)cc1 [Compound A251, 1-(5-tert-Butyl-2-p-tolyl-2H-pyrazol-3-yl)-3-{4-[1-(2-methyl-pyridine-3-carbonyl)-piperidin-4-ylmethyl]-phenyl}-urea] |
| 10 to 500 nM | Cc1ccc(-n2nc(C(C)(C)C)cc2NC(=O)Nc2ccc(CC3CCN(C(=O)Cc4ccsc4)CC3)cc2)cc1 [Compound A389, 1-(5-tert-Butyl-2-p-tolyl-2H-pyrazol-3-yl)-3-{4-[1-(2-thiophen-3-yl-acetyl)-piperidin-4-ylmethyl]-phenyl}-urea] |
| 10 to 500 nM | Cc1ccc(-n2nc(C(C)(C)C)cc2NC(=O)Nc2cccc(CC3CCN(C(=O)c4ccoc4)CC3)c2)cc1 [Compound A92, 1-(5-tert-Butyl-2-p-tolyl-2H-pyrazol-3-yl)-3-{3-[1-(furan-3-carbonyl)-piperidin-4-ylmethyl]-phenyl}-urea] |
| 10 to 500 nM | Cc1ccc(-n2nc(C(C)(C)C)cc2NC(=O)Nc2cccc(CC3CCN(C(=O)Cc4cccs4)CC3)c2)cc1 [Compound A189, 1-(5-tert-Butyl-2-p-tolyl-2H-pyrazol-3-yl)-3-{3-[1-(2-thiophen-2-yl-acetyl)-piperidin-4-ylmethyl]-phenyl}-urea] |
| 10 to 500 nM | Cc1ccc(-n2nc(C(C)(C)C)cc2NC(=O)Nc2ccc(CC3CCN(C(=O)c4cccc(C(C)C#N)c4)CC3)cc2)cc1 (stereo not shown) [Compound A272, 1-(5-tert-Butyl-2-p-tolyl-2H-pyrazol-3-yl)-3-(4-{1-[3-(cyano-methyl-methyl)-benzoyl]-piperidin-4-ylmethyl}-phenyl)-urea] |
| 10 to 500 nM | Cc1ccc(-n2nc(C(C)(C)C)cc2NC(=O)Nc2ccc(CC3CCN(C(=O)c4cc5cccnc5nc4C)CC3)cc2)cc1 [Compound A249, 1-(5-tert-Butyl-2-p-tolyl-2H-pyrazol-3-yl)-3-{4-[1-(2-methyl-[1,8]naphthyridine-3-carbonyl)-piperidin-4-ylmethyl]-phenyl}-urea] |
| 10 to 500 nM | Cc1ccc(-n2nc(C(C)(C)C)cc2NC(=O)Nc2cccc(CC3CCN(C(=O)c4ccc5ncsc5c4)CC3)c2)cc1 [Compound A150, 1-{3-[1-(Benzothiazole-6-carbonyl)-piperidin-4-ylmethyl]-phenyl}-3-(5-tert-butyl-2-p-tolyl-2H-pyrazol-3-yl)-urea] |
| 10 to 500 nM | Cc1ccc(-n2nc(C(C)(C)C)cc2NC(=O)Nc2cccc(CC3CCN(C(=O)c4ccc(N)c(OC(F)(F)F)c4)CC3)c2)cc1 [Compound A114, 1-{3-[1-(4-Amino-3-trifluoromethoxy-benzoyl)-piperidin-4-ylmethyl]-phenyl}-3-(5-tert-butyl-2-p-tolyl-2H-pyrazol-3-yl)-urea] |
| 10 to 500 nM | COc1ccc(OC)c(S(=O)(=O)N2CCC(Cc3ccc(NC(=O)Nc4cc(C(C)(C)C)nn4-c4ccc(C)cc4)cc3)CC2)c1 [Compound A564, 1-(5-tert-Butyl-2-p-tolyl-2H-pyrazol-3-yl)-3-{4-[1-(2,5-dimethoxy-benzenesulfonyl)-piperidin-4-ylmethyl]-phenyl}-urea] |

| SMILES | IC50 |
| --- | --- |
| Cc1ccc(-n2nc(C(C)(C)C)cc2NC(=O)Nc2ccc(CC3CC4CCC(C3)N4C(=O)Cc3ccc(F)cc3F)cc2)cc1 (stereo not shown) [Compound A1364, 1-(5-tert-Butyl-2-p-tolyl-2H-pyrazol-3-yl)-3-(4-{8-[2-(2,4-difluoro-phenyl)-acetyl]-8-aza-bicyclo[3.2.1]oct-3-ylmethyl}-phenyl)-urea] | 10 to 500 nM |
